Test results taken from PubChem BioAssay AID330 (DTP/NCI, 2004).
Where “and” joins values, the source holds several entries; their conditions need not be identical. Equal values may be shown once. Toxic doses and inconclusive results are not listed. The calls were made as follows: active = survival T/C of 150% or more; inactive = T/C below 125% in these data.

Test system: P388 leukemia ip, CD2F1 mice, survival T/C
Assay: NCI In Vivo Anticancer Drug Screen. Data for tumor model P388 Leukemia (intraperitoneal) in CD2F1 (CDF1) mice
Settings: endpoint: median survival time, higher = longer survival
Outline: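 Mice carrying the transplanted tumor received test compound or vehicle. Survival was recorded in each group, and the value is the treated-group measurement divided by that of the vehicle-treated control group.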

[1] = dose: 25.0 mg/kg/injection, schedule: Q01DX009 (ip), vehicle: Klucel (hydroxypropylcellulose) (HPC)
[2] = dose: 50.0 mg/kg/injection, schedule: Q01DX009 (ip), vehicle: Klucel (hydroxypropylcellulose) (HPC)
[3] = dose: 100.0 mg/kg/injection, schedule: Q01DX009 (ip), vehicle: Klucel (hydroxypropylcellulose) (HPC)
[4] = dose: 200.0 mg/kg/injection, schedule: Q01DX009 (ip), vehicle: Klucel (hydroxypropylcellulose) (HPC)
[5] = dose: 100.0 mg/kg/injection, schedule: Q04DX003 (ip), vehicle: saline with Tween-80
[6] = dose: 200.0 mg/kg/injection, schedule: Q04DX003 (ip), vehicle: saline with Tween-80
[7] = dose: 50.0 mg/kg/injection, schedule: Q01DX005 (ip), vehicle: saline with Tween-80
[8] = dose: 100.0 mg/kg/injection, schedule: Q01DX005 (ip), vehicle: saline with Tween-80
[9] = dose: 200.0 mg/kg/injection, schedule: Q01DX005 (ip), vehicle: saline with Tween-80
[10] = dose: 100.0 mg/kg/injection, schedule: Q01DX009 (ip), vehicle: saline with Tween-80
[11] = dose: 200.0 mg/kg/injection, schedule: Q01DX009 (ip), vehicle: saline with Tween-80
[12] = dose: 400.0 mg/kg/injection, schedule: Q01DX009 (ip), vehicle: saline with Tween-80
[13] = dose: 25.0 mg/kg/injection, schedule: Q01DX009 (ip), vehicle: saline with Tween-80
[14] = dose: 50.0 mg/kg/injection, schedule: Q01DX009 (ip), vehicle: saline with Tween-80
[15] = dose: 12.5 mg/kg/injection, schedule: Q01DX009 (ip), vehicle: saline with Tween-80
[16] = dose: 50.0 mg/kg/injection, schedule: Q01DX005 (ip), vehicle: Klucel (hydroxypropylcellulose) (HPC)
[17] = dose: 60.0 mg/kg/injection, schedule: Q01DX005 (ip), vehicle: saline with Tween-80
[18] = dose: 120.0 mg/kg/injection, schedule: Q01DX005 (ip), vehicle: saline with Tween-80
[19] = dose: 240.0 mg/kg/injection, schedule: Q01DX005 (ip), vehicle: saline with Tween-80

Measured: T/C

CCOc1c(N=Nc2ccccc2O)c(C)nn1C(N)=S
inactive: dose: 3.75 mg/kg/injection, schedule: Q01DX005 (ip), vehicle: Klucel (hydroxypropylcellulose) (HPC) 103 % of control | dose: 7.5 mg/kg/injection, schedule: Q01DX005 (ip), vehicle: Klucel (hydroxypropylcellulose) (HPC) 102 % of control | dose: 15.0 mg/kg/injection, schedule: Q01DX005 (ip), vehicle: Klucel (hydroxypropylcellulose) (HPC) 104 % of control and 95 % of control

N#Cc1nc2c(nc1N)CCCCCCCCCC2
inactive: [1] 94 % of control | [2] 94 % of control | [3] 92 % of control | [4] 100 % of control

CC1(OC(=O)Nc2ccccc2)CCCCC1
inactive: [5] 96 % of control | [6] 100 % of control | dose: 400.0 mg/kg/injection, schedule: Q04DX003 (ip), vehicle: saline with Tween-80 97 % of control

C1CCC([N-]C2CCCCC2)CC1.C1CCC([N-]C2CCCCC2)CC1.[Cl][Pt+2][Cl]
inactive: dose: 100.0 mg/kg/injection, schedule: Q01DX001 (sc), vehicle: other 103 % of control | dose: 200.0 mg/kg/injection, schedule: Q01DX001 (sc), vehicle: other 107 % of control

CCn1c2ccc([N+](=O)[O-])cc2c2c([N+](=O)[O-])c(N)ccc21
inactive: [7] 92 % of control | [8] 87 % of control | [9] 90 % of control

COc1cc2c(cc1O)CCCC=C2C1CCCCc2cc(O)c(OC)cc21 (stereo not given)
inactive: [10] 104 % of control | [11] 94 % of control | [12] 91 % of control

COc1ccc(C(=O)c2no[n+]([O-])c2C(=O)c2ccc(OC)cc2)cc1
inactive: [13] 108 % of control | [14] 104 % of control and 107 % of control | [10] 100 % of control and 106 % of control | [11] 115 % of control | [12] 123 % of control

Oc1[nH]c2ccccc2c1N=Nc1nnc(-c2ccccc2)c(-c2ccccc2)n1
inactive: [7] 95 % of control | [8] 107 % of control | [9] 101 % of control

CCCCCCCCCC(C)(C)NP(=S)(OCC)OCC (tested in a mixture with another compound)
inactive: [2] 105 % of control | [3] 105 % of control | [4] 100 % of control

COC(=O)c1ccc(O)c([N+](=O)[O-])c1
inactive: dose: 50.0 mg/kg/injection, schedule: Q04DX003 (ip), vehicle: saline with Tween-80 100 % of control | [5] 109 % of control | [6] 100 % of control

C=CC(C)(O)/C=C/C=C(\C)C(CC1OC1(C)C)OC(=O)/C(C)=C\C (stereo not given)
inactive: [2] 95 % of control | [3] 107 % of control

O=C1Nc2ccccc2C1=Nc1ccc2[nH]c3ccccc3c2c1
inactive: dose: 60.0 mg/kg/injection, schedule: Q01DX005 (ip), vehicle: Klucel (hydroxypropylcellulose) (HPC) 92 % of control | dose: 120.0 mg/kg/injection, schedule: Q01DX005 (ip), vehicle: Klucel (hydroxypropylcellulose) (HPC) 93 % of control | dose: 240.0 mg/kg/injection, schedule: Q01DX005 (ip), vehicle: Klucel (hydroxypropylcellulose) (HPC) 88 % of control

CC(=O)OCC1CN2CC1(c1ccccc1)C(=O)NC2=O (stereo not given)
inactive: dose: 100.0 mg/kg/injection, schedule: Q01DX001 (ip), vehicle: saline 102 % of control | dose: 200.0 mg/kg/injection, schedule: Q01DX001 (ip), vehicle: saline 102 % of control | dose: 400.0 mg/kg/injection, schedule: Q01DX001 (ip), vehicle: saline 100 % of control

O=[N+]([O-])c1c(Sc2ccccc2)ncnc1Sc1ccccc1
inactive: [15] 100 % of control | [13] 100 % of control | [14] 91 % of control | dose: 50.0 mg/kg/injection, schedule: Q01DX009 (ip), vehicle: saline 95 % of control

COc1cc(NC(C)=O)c(OC)c2c(Cl)ccnc12
inactive: dose: 100.0 mg/kg/injection, schedule: Q01DX001 (ip), vehicle: acid diluted with saline 101 % of control | dose: 200.0 mg/kg/injection, schedule: Q01DX001 (ip), vehicle: acid diluted with saline 99 % of control

COc1ccc(CC2c3cc(OC)c(OC)cc3C=CN2C)cc1OC (stereo not given)
inactive: dose: 12.5 mg/kg/injection, schedule: Q01DX005 (ip), vehicle: Klucel (hydroxypropylcellulose) (HPC) 99 % of control | dose: 25.0 mg/kg/injection, schedule: Q01DX005 (ip), vehicle: Klucel (hydroxypropylcellulose) (HPC) 103 % of control | [16] 96 % of control

CC1OCC(Br)([N+](=O)[O-])CO1 (stereo not given)
inactive: dose: 3.12 mg/kg/injection, schedule: Q01DX009 (ip), vehicle: saline with Tween-80 104 % of control and 110 % of control | dose: 6.25 mg/kg/injection, schedule: Q01DX009 (ip), vehicle: saline with Tween-80 108 % of control and 112 % of control | [15] 100 % of control and 103 % of control and 113 % of control

CCCCCCCCCOCC(=O)O
inactive: [14] 100 % of control | [10] 99 % of control | [11] 95 % of control

Oc1c(CNCc2ccc(Cl)c(Cl)c2)ccc2cccnc12
inactive: dose: 100.0 mg/kg/injection, schedule: Q04DX003 (ip), vehicle: Klucel (hydroxypropylcellulose) (HPC) 104 % of control | dose: 200.0 mg/kg/injection, schedule: Q04DX003 (ip), vehicle: Klucel (hydroxypropylcellulose) (HPC) 105 % of control | dose: 400.0 mg/kg/injection, schedule: Q04DX003 (ip), vehicle: Klucel (hydroxypropylcellulose) (HPC) 106 % of control

CCc1ccccc1NC1=C(Cl)C(=O)c2ccccc2C1=O
inactive: [17] 104 % of control | [18] 107 % of control

CCCCCCCCCCCCCCCC(=O)Nc1ncc([N+](=O)[O-])s1
inactive: [2] 86 % of control | [3] 96 % of control | [4] 96 % of control

O=C(O)C#Cc1cccnc1
inactive: [17] 106 % of control | [18] 98 % of control | [19] 91 % of control

CN=C(N)N/N=C(\C)c1ccc(Cl)c(Cl)c1
inactive: dose: 25.0 mg/kg/injection, schedule: Q04DX002 (ip), vehicle: saline with Tween-80 100 % of control | dose: 50.0 mg/kg/injection, schedule: Q04DX002 (ip), vehicle: saline with Tween-80 99 % of control

CCC1(c2ccnc3cc(Cl)ccc23)C(=O)NC(=O)NC1=O
inactive: dose: 50.0 mg/kg/injection, schedule: Q01DX009 (ip), vehicle: distilled water + alcohol 100 % of control | dose: 100.0 mg/kg/injection, schedule: Q01DX009 (ip), vehicle: distilled water + alcohol 98 % of control | dose: 200.0 mg/kg/injection, schedule: Q01DX009 (ip), vehicle: distilled water + alcohol 99 % of control

COCCOCCOCCOCCOCCOCCOCCOC(=O)Nc1ccc(C)c(NC(=O)OCCOCCOCCOCCOCCOCCOCCOC)c1
inactive: dose: 100.0 mg/kg/injection, schedule: Q01DX009 (ip), vehicle: saline 109 % of control | dose: 200.0 mg/kg/injection, schedule: Q01DX009 (ip), vehicle: saline 109 % of control | dose: 400.0 mg/kg/injection, schedule: Q01DX009 (ip), vehicle: saline 95 % of control

Nc1ccc(C(=O)CCl)c(Cl)c1
inactive: dose: 12.5 mg/kg/injection, schedule: Q01DX009 (ip), vehicle: Klucel (hydroxypropylcellulose) (HPC) 107 % of control | [1] 110 % of control | [2] 110 % of control and 116 % of control

O=c1cc(CCc2ccccc2)c2ccccc2[nH]1
inactive: dose: 100.0 mg/kg/injection, schedule: Q04DX002 (ip), vehicle: saline with Tween-80 94 % of control | dose: 200.0 mg/kg/injection, schedule: Q04DX002 (ip), vehicle: saline with Tween-80 94 % of control | dose: 400.0 mg/kg/injection, schedule: Q04DX002 (ip), vehicle: saline with Tween-80 95 % of control

C=Cc1c2ccccc2cc2ccccc12
inactive: [16] 109 % of control | dose: 100.0 mg/kg/injection, schedule: Q01DX005 (ip), vehicle: Klucel (hydroxypropylcellulose) (HPC) 106 % of control | dose: 200.0 mg/kg/injection, schedule: Q01DX005 (ip), vehicle: Klucel (hydroxypropylcellulose) (HPC) 100 % of control

Cc1cc2c(c(Br)c1O)Oc1c(cc(C)c(O)c1Br)C21OC(=O)c2ccccc21
inactive: [7] 110 % of control | [8] 106 % of control | [9] 105 % of control

O=C1C=CC(Nc2cccc([N+](=O)[O-])c2)C1Nc1cccc([N+](=O)[O-])c1 (stereo not given)
inactive: dose: 7.5 mg/kg/injection, schedule: Q01DX005 (ip), vehicle: saline with Tween-80 102 % of control | dose: 15.0 mg/kg/injection, schedule: Q01DX005 (ip), vehicle: saline with Tween-80 90 % of control | dose: 30.0 mg/kg/injection, schedule: Q01DX005 (ip), vehicle: saline with Tween-80 91 % of control | [19] 88 % of control and 92 % of control
